Experimental data published in ChEMBL document CHEMBL5360532, “Current scenario of quinolone hybrids with potential antibacterial activity against ESKAPE pathogens” (Eur J Med Chem, 2023).
In brackets after ≈: the same amount, converted by molar mass. Blank lines part the entries; values can stand above or below the compound they belong to.

How the values were obtained:
Format in all cases: functional
Pseudomonas aeruginosa [1] = assay: Antibacterial activity against Pseudomonas aeruginosa ATCC 27853 assessed as bacterial growth inhibition by agar dilution assay
Acinetobacter baumannii = assay: Antibacterial activity against Acinetobacter baumannii assessed as bacterial growth inhibition by agar dilution assay
Staphylococcus aureus [2] = assay: Antibacterial activity against Staphylococcus aureus ATCC 29213 assessed as bacterial growth inhibition by agar dilution assay
Staphylococcus aureus [3] = assay: Antibacterial activity against methicillin resistant Staphylococcus aureus assessed as bacterial growth inhibition by agar dilution assay
Staphylococcus aureus [4] = assay: Antibacterial activity against Staphylococcus aureus ATCC 25923 assessed as bacterial growth inhibition by agar dilution assay
Escherichia coli [5] = assay: Antibacterial activity against Escherichia coli ATCC 25922 assessed as bacterial growth inhibition by agar dilution assay
Staphylococcus aureus [6] = assay: Antibacterial activity against Staphylococcus aureus assessed as bacterial growth inhibition by agar dilution assay
Klebsiella pneumoniae [7] = assay: Antibacterial activity against Klebsiella pneumoniae assessed as bacterial growth inhibition by agar dilution assay
Pseudomonas aeruginosa [8] = assay: Antibacterial activity against Pseudomonas aeruginosa assessed as zone of inhibition at 250 ug/ml by agar well diffusion assay; conditions: read-out: IZ
Escherichia coli [9] = assay: Antibacterial activity against Escherichia coli assessed as zone of inhibition at 250 ug/ml by agar well diffusion assay; conditions: read-out: IZ
Klebsiella pneumoniae [10] = assay: Antibacterial activity against Klebsiella pneumoniae assessed as zone of inhibition at 250 ug/ml by agar well diffusion assay; conditions: read-out: IZ
Staphylococcus aureus [11] = assay: Antibacterial activity against Staphylococcus aureus assessed as zone of inhibition at 250 ug/ml by agar well diffusion assay; conditions: read-out: IZ
Staphylococcus aureus [12] = assay: Antibacterial activity against Staphylococcus aureus clinical isolate 1 assessed as bacterial growth inhibition by agar disc diffusion assay
Escherichia coli [13] = assay: Antibacterial activity against Escherichia coli clinical isolate 1 assessed as bacterial growth inhibition by agar disc diffusion assay
Pseudomonas aeruginosa [14] = assay: Antibacterial activity against Pseudomonas aeruginosa ATCC 27853 assessed as bacterial growth inhibition by agar disc diffusion assay
Pseudomonas aeruginosa [15] = assay: Antibacterial activity against Pseudomonas aeruginosa clinical isolate 1 assessed as bacterial growth inhibition by agar disc diffusion assay
Staphylococcus aureus [16] = assay: Antibacterial activity against Staphylococcus aureus ATCC 25923 assessed as bacterial growth inhibition by agar disc diffusion assay
Alternaria = assay: Antifungal activity against Alternaria assessed as fungal growth inhibition measured after 7 days by agar disc diffusion assay; conditions: 168 h, time 7 day
[17] = test system: Fusarium oxysporum f. sp. lycopersici; assay: Antifungal activity against Fusarium oxysporum f. sp. lycopersici assessed as fungal growth inhibition measured after 7 days by agar disc diffusion assay; conditions: 168 h, time 7 day
Escherichia coli [18] = assay: Antibacterial activity against Escherichia coli ATCC 25922 assessed as bacterial growth inhibition by agar disc diffusion assay
Candida albicans = assay: Antifungal activity against Candida albicans assessed as fungal growth inhibition measured after 24 hrs by agar cup diffusion assay
Escherichia coli [19] = assay: Antibacterial activity against Escherichia coli assessed as bacterial growth inhibition measured after 24 hrs by agar cup diffusion assay
Staphylococcus aureus [20] = assay: Antibacterial activity against Staphylococcus aureus assessed as bacterial growth inhibition measured after 24 hrs by agar cup diffusion assay
Pseudomonas aeruginosa [21] = assay: Antibacterial activity against Pseudomonas aeruginosa assessed as bacterial growth inhibition measured after 24 hrs by agar cup diffusion assay
Escherichia coli [22] = assay: Antibacterial activity against Escherichia coli assessed as bacterial growth inhibition measured after 18 to 24 hrs by two fold serial dilution assay; conditions: time 18-24 hrs
Pseudomonas aeruginosa [23] = assay: Antibacterial activity against Pseudomonas aeruginosa assessed as bacterial growth inhibition measured after 18 to 24 hrs by two fold serial dilution assay; conditions: time 18-24 hrs
Staphylococcus aureus [24] = assay: Antibacterial activity against methicillin sensitive Staphylococcus aureus assessed as bacterial growth inhibition measured after 18 to 24 hrs by two fold serial dilution assay; conditions: time 18-24 hrs
Klebsiella pneumoniae [25] = assay: Antibacterial activity against Klebsiella pneumoniae assessed as bacterial growth inhibition measured after 18 to 24 hrs by two fold serial dilution assay; conditions: time 18-24 hrs
Escherichia coli [26] = assay: Antibacterial activity against Escherichia coli ATCC35218 assessed as bacterial growth inhibition measured after 18 to 24 hrs inhibition by broth microdilution assay; conditions: time 18-24 hrs
Pseudomonas aeruginosa [27] = assay: Antibacterial activity against Pseudomonas aeruginosa assessed as bacterial growth inhibition by broth microdilution assay

SMILES: CCOC(=O)c1cn(Cc2nc3ccccc3n2Cc2ccc(Cl)cc2Cl)c2cc(Cl)c(F)cc2c1=O
MIC (Pseudomonas aeruginosa [1]): 4 µg/mL (≈ 7.16 µM) | MIC (Acinetobacter baumannii): 4 µg/mL (≈ 7.16 µM) | MIC (Staphylococcus aureus [2]): 1 µg/mL (≈ 1.79 µM) | MIC (Staphylococcus aureus [3]): 4 µg/mL (≈ 7.16 µM) | MIC (Staphylococcus aureus [4]): 1 µg/mL (≈ 1.79 µM) | MIC (Escherichia coli [5]): 1 µg/mL (≈ 1.79 µM) | MIC (Staphylococcus aureus [6]): 4 µg/mL (≈ 7.16 µM) | MIC (Klebsiella pneumoniae [7]): 1 µg/mL (≈ 1.79 µM)

SMILES: COC(=O)c1cn(C2CC2)c2cc(N3CCN(CC(=O)OC(C)Cn4c([N+](=O)[O-])cnc4C)CC3)c(F)cc2c1=O (stereo not given)
zone of inhibition at 250 µg/mL (Pseudomonas aeruginosa [8]): 19 mm | zone of inhibition at 250 µg/mL (Escherichia coli [9]): 19 mm | zone of inhibition at 250 µg/mL (Klebsiella pneumoniae [10]): 19 mm | zone of inhibition at 250 µg/mL (Staphylococcus aureus [11]): 19 mm

SMILES: CCOP(=O)(OCC)C(NS(=O)(=O)Nc1ccc(F)cc1)c1cc2cccc(C)c2[nH]c1=O (stereo not given)
MIC (Staphylococcus aureus [12]): 0.5 µg/mL (≈ 1.01 µM) | MIC (Escherichia coli [13]): 0.5 µg/mL (≈ 1.01 µM) | MIC (Pseudomonas aeruginosa [14]): 0.5 µg/mL (≈ 1.01 µM) | MIC (Pseudomonas aeruginosa [15]): 0.5 µg/mL (≈ 1.01 µM) | MIC (Staphylococcus aureus [16]): 0.5 µg/mL (≈ 1.01 µM) | MIC (Alternaria): 0.125 µg/mL (≈ 0.251 µM) | MIC [17]: 0.125 µg/mL (≈ 0.251 µM) | MIC (Escherichia coli [18]): 0.5 µg/mL (≈ 1.01 µM)

MIC (Candida albicans): 2.03 µg/mL (≈ 3.39 µM) | MIC (Escherichia coli [19]): 0.53 µg/mL (≈ 0.885 µM) | MIC (Staphylococcus aureus [20]): 0.53 µg/mL (≈ 0.885 µM) | MIC (Pseudomonas aeruginosa [21]): 0.53 µg/mL (≈ 0.885 µM)
SMILES: O=C(/C=C/c1ccc(F)cc1)c1ccc(NC(=O)N2CCN(c3cc4c(cc3F)c(=O)c(C(=O)O)cn4C3CC3)CC2)cc1

SMILES: O=C1C(=O)N(Cc2cn(CC(=O)N3CCN(c4cc5c(cc4F)c(=O)c(C(=O)O)cn5C4CC4)CC3)nn2)c2ccc(F)cc21
MIC (Escherichia coli [22]): ≤ 0.03 µg/mL | MIC (Pseudomonas aeruginosa [23]): ≤ 0.03 µg/mL | MIC (Staphylococcus aureus [24]): ≤ 0.03 µg/mL | MIC (Klebsiella pneumoniae [25]): ≤ 0.03 µg/mL | MIC (Escherichia coli [26]): ≤ 0.03 µg/mL | MIC (Pseudomonas aeruginosa [27]): ≤ 0.03 µg/mL
